# Experimental data taken from US9512139B2, “Conformationally constrained, fully synthetic macrocyclic compounds” (POLYPHOR AG, priority 2009, dated 2016).
# Experiments:
# [1] = Metabolic stability assay, human microsomes; format: in vitro ADME; settings: for half-life at 10 µM: both sexes
# [2] = Metabolic stability assay, CD-1 mouse microsomes; format: in vitro ADME; settings: for half-life at 10 µM: both sexes
# in vitro [3] = format: in vitro ADME, human
# Experimental: Example compounds were dissolved in DMSO/H2O 90:10 to a final concentration of 10 mM for plasma stability determination and metabolic stability determination.
# Human plasma (3-5 donors, Blutspendedienst SRK, Basel) and CD-1 mouse plasma (mixed gender pool >50 animals, Innovative Research, CA, USA) are both sodium citrate stabilized. The assay is performed in triplicates at 10 μM compound concentration and 37° C. Samples are taken at 0, 15, 60, and 240 minutes and stopped by precipitation with 2 volumes of acetonitrile. The supernatant is collected, evaporated and reconstituted in a 5% acetonitrile solution to be analyzed by HPLC/MS/MS. The resulting peak area counts are expressed in percent of the 0 value and used to determine the endpoint stability in % and the half life in minutes. In order to monitor assay integrity the degradation of propantheline is assayed with every experimental set.
# [4] = from CN(CCC[C@H](NC(=O)OCc1ccccc1)C(=O)O)C(=O)c1cc(F)ccc1OC[C@@H]1C[C@@H](N)CN1C(=O)OC(C)(C)C; amide bond; FDPP; DMF; 1.0 mM
# in vitro [5] = format: in vitro ADME, mouse
# [6] = Metabolic stability assay, rat microsomes (values in parentheses); format: in vitro ADME; settings: value in parentheses
# [7] = both, human, microsomes, 1 h, 10 µM
# [8] = both, CD-1, mouse, microsomes, 1 h, 10 µM
# [9] = both, CD-1, mouse, plasma, 10 µM
# [10] = both, CD-1, mouse, plasma, 4 h, 10 µM
# 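For Plasma Stability 240 min mouse [% remain.] in this document: sodium citrate stabilized mouse plasma, parent compound quantified by HPLC/MS/MS relative to its peak area at time zero, run in triplicate.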
# 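For Plasma Stability T½ [min] mouse in this document: sodium citrate stabilized mouse plasma, parent compound quantified by HPLC/MS/MS relative to its peak area at time zero, run in triplicate.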
smiles,measurement,setting,value
"CN1CCC[C@H](NC(=O)OCc2ccccc2)C(=O)N[C@@H]2C[C@@H](COc3ccc(F)cc3C1=O)N(C(=O)OC(C)(C)C)C2 [Ex. 403, tert-butyl (1S,15S,18R)-15-{[(benzyloxy)carbonyl]amino}-7-fluoro-11-methyl-10,16-dioxo-3-oxa-11,17,20-triazatricyclo[16.2.1.0^4,9]henicosa-4,6,8-triene-20-carboxylate]",half-life at 10 µM,"[1]; human, microsomes",36 min
same,Metabolic Stability 60 min hum [% remain.],[1]; [7],37 % remain.
same,half-life at 10 µM,"[2]; CD-1, mouse, microsomes",57 min
same,Metabolic Stability 60 min mouse [% remain.],[2]; [8],55 % remain.
same,Plasma Stability T½ [min] hum,"in vitro [3]; human, plasma, 10 µM",> 240 min
same,Plasma Stability 240 min hum [% remain.],"in vitro [3]; human, plasma, 4 h, 10 µM",100 % remain.
same,"ring closure, yield of all isomers",[4],73%
same,Plasma Stability T½ [min] mouse,in vitro [5]; [9],> 240 min
same,Plasma Stability 240 min mouse [% remain.],in vitro [5]; [10],65 % remain.
"CN1CCC[C@H](NC(=O)Cc2ccccc2)C(=O)N[C@H]2CN[C@H](COc3ccc(F)cc3C1=O)C2 [Ex. 406, N-[(1S,15S,18R)-7-fluoro-11-methyl-10,16-dioxo-3-oxa-11,17,20-triazatricyclo[16.2.1.0^4,9]henicosa-4,6,8-trien-15-yl]-2-phenylacetamide]",Metabolic Stability 60 min (rat) [% remain.],[6],96 % remain.
same,Metabolic Stability T½ [min] (rat),[6],60 (60) min
same,Metabolic Stability T½ [min] hum,"[1]; both, human, microsomes, 10 µM",> 60 min
same,Metabolic Stability 60 min hum [% remain.],[1]; [7],77 % remain.
same,Metabolic Stability T½ [min] mouse,"[2]; both, CD-1, mouse, microsomes, 10 µM",> 60 min
same,Metabolic Stability 60 min mouse [% remain.],[2]; [8],94 % remain.
same,Plasma Stability T½ [min] hum,"in vitro [3]; human, plasma, 10 µM",> 240 min
same,Plasma Stability 240 min hum [% remain.],"in vitro [3]; human, plasma, 4 h, 10 µM",75 % remain.
same,Plasma Stability T½ [min] mouse,in vitro [5]; [9],> 240 min
same,Plasma Stability 240 min mouse [% remain.],in vitro [5]; [10],89 % remain.
"CN1CCC[C@H](NCC(C)(C)C)C(=O)N2C[C@@H](Oc3ccccc3)C[C@H]2COc2cccc(c2)C1=O [Ex. 563, (4S,6S,10S)-14-methyl-10-(neopentylamino)-6-phenoxy-2-oxa-8,14-diazatricyclo[14.3.1.0^4,8]icosa-1(20),16,18-triene-9,15-dione]",Metabolic Stability 60 min (rat) [% remain.],[6],32 % remain.
same,half-life at 10 µM,[6]; read-out: Metabolic Stability T½ [min] (rat),31 min
same,half-life at 10 µM,"[1]; human, microsomes",8 min
same,Metabolic Stability 60 min hum [% remain.],[1]; [7],1 % remain.
same,half-life at 10 µM,"[2]; CD-1, mouse, microsomes",12 min
same,Metabolic Stability 60 min mouse [% remain.],[2]; [8],4 % remain.
same,Plasma Stability T½ [min] hum,"in vitro [3]; human, plasma, 10 µM",> 240 min
same,Plasma Stability 240 min hum [% remain.],"in vitro [3]; human, plasma, 4 h, 10 µM",88 % remain.
same,Plasma Stability T½ [min] mouse,in vitro [5]; [9],> 240 min
same,Plasma Stability 240 min mouse [% remain.],in vitro [5]; [10],81 % remain.
"CN1CCC[C@H](N)C(=O)N2C[C@@H](OCc3ccc(-c4ccccc4)cc3)C[C@H]2COc2cccc(c2)C1=O [Ex. 570, (4S,65,10S)-10-amino-6-([1,1′-biphenyl]-4-ylmethoxy)-14-methyl-2-oxa-8,14-diazatricyclo[14.3.1.0^4,8]icosa-1(20),16,18-triene-9,15-dione]",Metabolic Stability 60 min (rat) [% remain.],[6],76 % remain.
same,Metabolic Stability T½ [min] (rat),[6],60 (60) min
same,Metabolic Stability 60 min hum [% remain.],"[1]; human microsomes, 60 min",20 % remain.
same,Metabolic Stability T½ [min] hum,"[1]; human, microsomes",13 min
same,Metabolic Stability 60 min mouse [% remain.],"[2]; mouse microsomes, 60 min",69 % remain.
same,Metabolic Stability T½ [min] mouse,"[2]; mouse, microsomes",> 60 min
same,Plasma Stability 240 min hum [% remain.],"in vitro [3]; human plasma, 240 min",92 % remain.
same,Plasma Stability T½ [min] hum,"in vitro [3]; human, plasma",> 240 min
same,Plasma Stability 240 min mouse [% remain.],"in vitro [5]; mouse plasma, 240 min",100 % remain.
same,Plasma Stability T½ [min] mouse,"in vitro [5]; mouse, plasma",> 240 min
